From US20100047332A1, “Treatments for burns using thyroid hormone compound in a human” (priority 2005, published 2010)

Columns and labels:
TSH [1] = conditions: topically applied, humans; cited from earlier work
rat = conditions: cited from earlier work
[2] = tested on: plasma glycerol (lipolysis of fat); test: Plasma glycerol assay before and after mild exercise with topical TriAc cream; type: in vivo, human; conditions: for glycerol response relative to baseline: Triac applied; for Percentage change: glycerol after exercise vs baseline
Excerpt: This example uses a glycerol assay to determine the effectiveness of topically applied thyroid hormones or thyroid hormone like molecules as described in the art to increase lipolysis of fat when topically applied. More specifically, this example uses a glycerol assay to determine the effectiveness of topically applied thyroid hormones or thyroid hormone like molecules as described in the art to dissolve fat when topically applied in an amount less than a single oral dose used typically for daily therapeutic or replacement dosages.
Three adult humans (A, B, and C) with normally functioning thyroids and no history of cardiovascular disease, varying by age, sex, BMI, body surface area, and physical activity, were tested. Age varies from less than 25 (subject A) to over 40 (subjects B and C). BMI varied between 18 (A), 20 (C), and 30 (B). Physical activity was greatest in subject A, who had the lowest BMI and was also the youngest. The other two subjects typically had less than three hours of exercise per week. No food or drink other than water was given two hours prior to application of the TriAc formulation. With this short fast, the subjects are still in the fed state and plasma glycerol levels would be expected to not change during exercise, as taught in the literature for young fit subjects (Coyle et al, J Appl Physiol. 1985 August; 59(2):429-33, herein incorporated by reference). The fed state as defined herein is an individual not having an overnight fast. […] The amount of cream and thus TriAc amount was not varied according to age, sex, or weight. The cream was applied intermittently: application days were separated by at least two days.
The subjects rested for 30 minutes and then exercised in a defined manner to maintain either 65-70% of their age adjusted maximal heart rate or 110-120 strides on a Precor 544 EFX elliptical trainer for 30 minutes. Heart rate was monitored continuously with a Polar wireless monitoring device. Room temperature varied between 72 and 84 degrees. Calories expended (from Precor) per kilogram were approximately constant among each participant and between participants on a per kilogram basis during each of the exercise sessions and were usually around 3.0 to 3.5 calories per kg (see Table 4). After a 30 minute exercise session and a 5 minute programmed cool down session, another plasma glycerol assay was taken. The samples were immediately refrigerated and centrifuged after 0 to 10 hours, each exercise set treated exactly the same way, frozen at −40° C. and assayed with the Sigma-Aldrich plasma glycerol assay after deproteinization. Exercise time was fixed at a regular time of day. The next day, the experiment was repeated. The order was placebo day, then treatment day.
The magnitude of the change pre and post exercise with and without TriAc was calculated and the percentage change from baseline with and without TriAc was calculated.

[3] = tested on: cellulite and subcutaneous fat; test: TriAc cream before exercise for cellulite; type: in vivo, human; conditions: after twelve applications
Procedure: TriAc-containing creams were produced by dissolving TriAc in a suitable solvent and adding it to a cream base. […] TriAc could also be added to the oil phase of a water in oil or a oil in water cream base, or charged in a solid lipid nanoparticle, or applied as a liposome, or a matrix patch as is known in the art.
The cream was only applied before exercise. More specifically, application occurred between 30 minutes and 2 hours before mild exercise. The mild exercise involved the underlying musculature, and included long walks, jogging, or gym exercises involving light resistance exercises, or stairmasters, treadmills and the like.
The amount of cream applied was always less than 5 ml, just sufficient to cover the area, usually less than 2 ml. […] For most of the applications, the amount of cream applied was less than 3 ml and usually less than 1.5 ml. In these applications, less than 0.4 mg was applied and as little as 80 μg was applied in at least some of the applications. Exercise occurred one to three times a week. Consequently, the cream was only applied one to three times a week. Two grams of cream, approximately 2 mls, was sufficient to cover the buttocks, back of thighs, and anterior waist area.

[4] = tested on: deep dermal pressure ulcer; test: TriAc cream on a deep dermal pressure ulcer; type: in vivo, human
Excerpt: The patient was a active triathlete who had developed a bicycle seat ulcer which was a persistent fissure running from coccyx almost to the anus. The deep dermal pressure ulcer resulted from pressure due to a bicycle seat. This pressure injury frequently was oozing and was generally moist. The fissure was 1-2 mm wide and 2-3 mm deep. It was resistant to a variety of over the counter steroid and anti-fungal creams and lanolin. […] The cream was applied for 4 treatments on an every other day basis, using barely enough to treat the area about 20 cm^2, sometimes every third day. […] Skin has remained intact for close to 6 months. The dermal ulcer in this example was non healing until the cream was used on an intermittent basis

[5] = tested on: thyroid hormone receptor TRα or β; conditions: cited from earlier work
TSH [6] = conditions: cited from earlier work
[7] = group, exercise with the TriAc treatment

SMILES: O=C(O)Cc1cc(I)c(Oc2ccc(O)c(I)c2)c(I)c1 [TriAc, [4-(4-hydroxy-3-iodophenoxy)-3,5-diiodophenyl]acetic acid]
- effect on TSH levels or other thyroid hormone function tests (TSH [1]): no effect on TSH levels
- amount needed to make a 200 gm rat hyperthyroid (rat): approximately 7 micrograms
- glycerol response relative to baseline ([2]; no exercise, subject A, one experiment): 80%
- glycerol response relative to baseline ([2]; no exercise, subject B): 13%
- glycerol response relative to baseline ([2]; no exercise, subject C): −40%
- glycerol response relative to baseline ([2]; with exercise, subject A): 250%
- average increase of the concentration of glycerol [2, 7]: 37 µM
- average increase of the concentration of glycerol above baseline [2, 7]: 124%
- increase of exercise induced breakdown of fat as evidenced by plasma glycerol ([2]; group, versus placebo): over 300%
- Net change in glycerol concentration after exercise ([2]; subject A, Trial 1 Treatment): 67.6 µM
- Glycerol Concentration ([2]; subject A, Trial 1 Treatment, 120 micrograms TriAc cream topical, After exercise): 93.7 µM
- Glycerol Concentration ([2]; subject A, Trial 1 Treatment, 120 micrograms TriAc cream topical, Before exercise (baseline)): 26.2 µM
- Percentage change ([2]; subject A, Trial 1 Treatment): 258.9%
- Net change in glycerol concentration after exercise ([2]; subject A, Trial 2 Treatment): 66.2 µM
- Glycerol Concentration ([2]; subject A, Trial 2 Treatment, After exercise): 97.9 µM
- Glycerol Concentration ([2]; subject A, Trial 2 Treatment, Before exercise (baseline)): 31.7 µM
- Percentage change ([2]; subject A, Trial 2 Treatment): 208.7%
- Net change in glycerol concentration after exercise ([2]; subject A, Trial 3 Treatment): 23.4 µM
- Glycerol Concentration ([2]; subject A, Trial 3 Treatment, After exercise): 42.7 µM
- Glycerol Concentration ([2]; subject A, Trial 3 Treatment, Before exercise (baseline)): 19.3 µM
- Percentage change ([2]; subject A, Trial 3 Treatment): 121.4%
- Net change in glycerol concentration after exercise ([2]; subject B, Trial 1 Treatment): 29.0 µM
- Glycerol Concentration ([2]; subject B, Trial 1 Treatment, After exercise): 64.8 µM
- Glycerol Concentration ([2]; subject B, Trial 1 Treatment, Before exercise (baseline)): 35.8 µM
- Percentage change ([2]; subject B, Trial 1 Treatment): 80.8%
- Net change in glycerol concentration after exercise ([2]; subject B, Trial 2 Treatment): 30.3 µM
- Glycerol Concentration ([2]; subject B, Trial 2 Treatment, After exercise): 60.7 µM
- Glycerol Concentration ([2]; subject B, Trial 2 Treatment, Before exercise (baseline)): 30.3 µM
- Percentage change ([2]; subject B, Trial 2 Treatment): 100.0%
- Net change in glycerol concentration after exercise ([2]; subject B, Trial 3 Treatment): 17.9 µM
- Glycerol Concentration ([2]; subject B, Trial 3 Treatment, After exercise): 40.0 µM
- Glycerol Concentration ([2]; subject B, Trial 3 Treatment, Before exercise (baseline)): 22.1 µM
- Percentage change ([2]; subject B, Trial 3 Treatment): 80.3%
- Net change in glycerol concentration after exercise ([2]; subject C, Trial 1 Treatment): 37.2 µM
- Glycerol Concentration ([2]; subject C, Trial 1 Treatment, After exercise): 80.0 µM
- Glycerol Concentration ([2]; subject C, Trial 1 Treatment, Before exercise (baseline)): 42.7 µM
- Percentage change ([2]; subject C, Trial 1 Treatment): 87.1%
- Net change in glycerol concentration after exercise ([2]; subject C, Trial 2 Treatment): 38.2 µM
- Glycerol Concentration ([2]; subject C, Trial 2 Treatment, After exercise): 90.3 µM
- Glycerol Concentration ([2]; subject C, Trial 2 Treatment, Before exercise (baseline)): 52.1 µM
- Percentage change ([2]; subject C, Trial 2 Treatment): 73.3%
- Net change in glycerol concentration after exercise ([2]; subject C, Trial 3 Treatment): 30.3 µM
- Glycerol Concentration ([2]; subject C, Trial 3 Treatment, After exercise): 57.9 µM
- Glycerol Concentration ([2]; subject C, Trial 3 Treatment, Before exercise (baseline)): 27.6 µM
- Percentage change ([2]; subject C, Trial 3 Treatment): 110.0%
- increase of effectiveness of exercise to burn fat ([2]; using percentage change in the concentration of glycerol, versus placebo): about 400%
- cellulite ([3]; 8 to 16 mg TriAc per 100 ml, before exercise): little evidence of cellulite remained
- contour of the buttocks [3]: smaller and smoother
- healing of the ulcer ([4]; 0.006% cream, 4 treatments every other day, over the next few weeks): substantial healing
- time skin has remained intact ([4]; after treatment with 0.006% cream): ~6 months
- potency as thyroid hormone agonist [5]: potency about that of T-3
- selectivity in binding [5]: slightly Beta selective
- transient change of TSH levels (TSH [6]; 350 ug oral, over a few hour time period): 30%
- minimum oral dosage which transiently changes TSH levels (TSH [6]; oral, human): 350 µg
